Assay: xn = mol fraction of the nth substance listed
Details: Liquid, Vibrating tube method

CCOC(=O)OCC [diethyl carbonate] + Cc1ccc(C)cc1
mass density [kg/m3]
Details | 100 kPa | 5000 kPa | 10000 kPa | 20000 kPa | 30000 kPa | 40000 kPa
288.15 K, x1 = 0.1014 | 876.7 | 880.1 | 883.7 | 890.3 | 896.1 | 902.1
288.15 K, x1 = 0.1346 | 879.5 | 884.1 | 887.8 | 894.3 | 900.3 | 906.3
288.15 K, x1 = 0.1949 | 887.5 | 891.2 | 894.8 | 901.3 | 907.5 | 913.4
288.15 K, x1 = 0.2767 | 898.3 | 900.9 | 904.5 | 911.3 | 917.4 | 923.5
288.15 K, x1 = 0.386 | 909.2 | 913.4 | 917.2 | 924.1 | 930.4 | 936.6
288.15 K, x1 = 0.4858 | 920.7 | 924.7 | 928.5 | 935.5 | 941.9 | 948.3
288.15 K, x1 = 0.5444 | 928.4 | 931.5 | 935.3 | 942.5 | 949.1 | 955.4
288.15 K, x1 = 0.5923 | 933.9 | 937 | 941 | 948 | 954.7 | 961.2
288.15 K, x1 = 0.6718 | 942.3 | 946.4 | 950.3 | 957.5 | 964.3 | 970.9
288.15 K, x1 = 0.7676 | 953.2 | 957.4 | 961.3 | 968.7 | 975.6 | 982.3
288.15 K, x1 = 0.8313 | 960.6 | 964.8 | 968.9 | 976.4 | 983.3 | 990.1
288.15 K, x1 = 0.9044 | 968.7 | 973.1 | 977.2 | 984.7 | 991.9 | 998.6
298.15 K, x1 = 0.1014 | 867.6 | 871.9 | 875.1 | 882 | 888.2 | 894.3
298.15 K, x1 = 0.1346 | 871.5 | 875.8 | 879 | 885.9 | 892.3 | 898.4
298.15 K, x1 = 0.1949 | 878.1 | 882.4 | 885.8 | 892.7 | 899.3 | 905.3
298.15 K, x1 = 0.2767 | 887.5 | 892 | 895.4 | 902.5 | 909.1 | 915.3
298.15 K, x1 = 0.386 | 899.8 | 904.4 | 907.7 | 915 | 921.9 | 928.2
298.15 K, x1 = 0.4858 | 910.7 | 915.2 | 918.8 | 926.3 | 933.2 | 939.6
298.15 K, x1 = 0.5444 | 916.8 | 922 | 925.6 | 933.2 | 940.2 | 946.6
298.15 K, x1 = 0.5923 | 922.8 | 927.4 | 931.1 | 938.5 | 945.8 | 952.3
298.15 K, x1 = 0.6718 | 931.7 | 936.5 | 940.3 | 947.8 | 955.1 | 961.8
298.15 K, x1 = 0.7676 | 942.4 | 947.3 | 951 | 959 | 966.3 | 973.1
298.15 K, x1 = 0.8313 | 949.8 | 954.7 | 958.4 | 966.4 | 973.8 | 980.8
298.15 K, x1 = 0.9044 | 957.6 | 962.7 | 966.6 | 974.7 | 982.2 | 989.1
308.15 K, x1 = 0.1014 | 858.7 | 862.8 | 866.6 | 873.8 | 880.4 | 886.6
308.15 K, x1 = 0.1346 | 862.5 | 866.7 | 870.4 | 877.7 | 884.5 | 890.8
308.15 K, x1 = 0.1949 | 868.9 | 873 | 876.5 | 884.2 | 891.1 | 897.5
308.15 K, x1 = 0.2767 | 878.2 | 882.4 | 886.5 | 893.8 | 900.8 | 907.3
308.15 K, x1 = 0.386 | 890.1 | 894.5 | 898.5 | 906.2 | 913.3 | 919.9
308.15 K, x1 = 0.4858 | 900.7 | 905.2 | 909.2 | 917.2 | 924.5 | 931.2
308.15 K, x1 = 0.5444 | 907.2 | 911.7 | 916 | 923.9 | 931.3 | 938.1
308.15 K, x1 = 0.5923 | 912.6 | 916.9 | 921.4 | 929.4 | 936.8 | 943.7
308.15 K, x1 = 0.6718 | 921.3 | 925.7 | 930.3 | 938.4 | 945.9 | 952.9
308.15 K, x1 = 0.7676 | 931.8 | 936.5 | 940.9 | 949.2 | 957 | 964.1
308.15 K, x1 = 0.8313 | 939 | 943.6 | 948.1 | 956.6 | 964.2 | 971.6
308.15 K, x1 = 0.9044 | 946.7 | 951.5 | 956.2 | 964.5 | 972.6 | 979.9

Reference: the NIST ThermoML archive (doi:10.1016/j.jct.2013.09.039)
